Data taken from ChEMBL document CHEMBL1201862, “PubChem BioAssay data set” (2004).
Several values for one entry are separate records, joined by “and”; a condition that tells them apart may be missing. Identical values can stand only once.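 Protocol summary: plate cells (96-well), add compound at 5 concentrations, incubate 48 h, interpolate endpoints linearly. Abbreviation: GI50, concentration required for 50% inhibition of growth.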 Activity calls are given as the source filed them. No stated cut-off is given here; in the data, active = GI50 up to about 1.1 µM and inactive = higher.

Tests used:
Test in all cases: NCI-60 cell line screen, 48 h
NCI-H460 = system: NCI-H460
HOP-62 = system: HOP-62
T47D = system: T47D
K562 = system: K562
Hs-578T = system: Hs-578T
OVCAR-8 = system: OVCAR-8
UO-31 = system: UO-31
TK-10 = system: TK-10
KM12 = system: KM12
SNB-75 = system: SNB-75
EKVX = system: EKVX
NCI-H226 = system: NCI-H226
MDA-MB-231 = system: MDA-MB-231
MDA-MB-435 = system: MDA-MB-435
SW-620 = system: SW-620
A498 = system: A498
OVCAR-3 = system: OVCAR-3
HCC 2998 = system: HCC 2998
U-251 = system: U-251
CAKI-1 = system: CAKI-1
SK-MEL-5 = system: SK-MEL-5
SF-539 = system: SF-539
NCI/ADR-RES = system: NCI/ADR-RES
HCT-116 = system: HCT-116
SK-OV-3 = system: SK-OV-3
MCF7 = system: MCF7
SF-295 = system: SF-295
HOP-92 = system: HOP-92
SN12C = system: SN12C
SK-MEL-28 = system: SK-MEL-28
IGROV-1 = system: IGROV-1
HL-60 = system: HL-60
SF-268 = system: SF-268
M14 = system: M14
786-0 = system: 786-0
OVCAR-5 = system: OVCAR-5
HCT-15 = system: HCT-15
RXF 393 = system: RXF 393
UACC-257 = system: UACC-257
ACHN = system: ACHN
COLO 205 = system: COLO 205
LOX IMVI = system: LOX IMVI
HT-29 = system: HT-29
MOLT-4 = system: MOLT-4
RPMI-8226 = system: RPMI-8226
UACC-62 = system: UACC-62
NCI-H23 = system: NCI-H23
MDA-N = system: MDA-N
CCRF-CEM = system: CCRF-CEM
DU-145 = system: DU-145
A549 = system: A549
PC-3 = system: PC-3
SR = system: SR
NCI-H522 = system: NCI-H522
SNB-19 = system: SNB-19
OVCAR-4 = system: OVCAR-4
Malme-3M = system: Malme-3M
SK-MEL-2 = system: SK-MEL-2

Question: Which results are given for COCOc1ccc(C(=O)Oc2cccc3c2OC(C)(C)O3)c(OCOC)c1?
Answer: GI50 (NCI-H460): 56 µM (inactive); GI50 (HOP-62): > 100 µM (inactive); GI50 (T47D): 37.8 µM (inactive); GI50 (K562): 56.4 µM (inactive); GI50 (Hs-578T): 31.3 µM (inactive); GI50 (OVCAR-8): > 100 µM (inactive); GI50 (UO-31): 71.1 µM (inactive); GI50 (TK-10): > 100 µM (inactive); GI50 (KM12): 11.9 µM (inactive); GI50 (SNB-75): 74.5 µM (inactive); GI50 (EKVX): > 100 µM (inactive); GI50 (NCI-H226): > 100 µM (inactive); GI50 (MDA-MB-231): 15.7 µM (inactive); GI50 (MDA-MB-435): 60 µM (inactive); GI50 (SW-620): 43.2 µM (inactive); GI50 (A498): > 100 µM (inactive); GI50 (OVCAR-3): > 100 µM (inactive); GI50 (HCC 2998): 62.7 µM (inactive); GI50 (U-251): 27.9 µM (inactive); GI50 (CAKI-1): > 100 µM (inactive); GI50 (SK-MEL-5): 54.8 µM (inactive); GI50 (SF-539): 37.7 µM (inactive); GI50 (NCI/ADR-RES): > 100 µM (inactive); GI50 (HCT-116): > 100 µM (inactive); GI50 (SK-OV-3): > 100 µM (inactive); GI50 (MCF7): 33.2 µM (inactive); GI50 (SF-295): > 100 µM (inactive); GI50 (HOP-92): > 100 µM (inactive); GI50 (SN12C): > 100 µM (inactive); GI50 (SK-MEL-28): 9.66 µM (inactive); GI50 (IGROV-1): > 100 µM (inactive); GI50 (HL-60): 0.0181 µM (active); GI50 (SF-268): 35.6 µM (inactive); GI50 (M14): 89.1 µM (inactive); GI50 (786-0): > 100 µM (inactive); GI50 (OVCAR-5): > 100 µM (inactive); GI50 (HCT-15): 83.4 µM; GI50 (RXF 393): 78.2 µM (inactive); GI50 (UACC-257): > 100 µM (inactive); GI50 (ACHN): > 100 µM (inactive); GI50 (COLO 205): > 100 µM (inactive); GI50 (LOX IMVI): 35.7 µM (inactive); GI50 (HT-29): > 100 µM (inactive); GI50 (MOLT-4): 53.2 µM (inactive); GI50 (RPMI-8226): 38.7 µM (inactive); GI50 (UACC-62): 28.2 µM (inactive); GI50 (NCI-H23): < 0.01 µM (active); GI50 (MDA-N): > 100 µM (inactive); GI50 (CCRF-CEM): 22.1 µM (inactive); GI50 (DU-145): > 100 µM (inactive)

Question: How did the GI50 (T47D) turn out when O=C1CC(CC(OCc2ccccc2)C(OCc2ccccc2)C(COCc2ccccc2)OCc2ccccc2)CC(=O)N1 (configuration not stated) was run?
Answer: > 10 µM (inactive)

Question: And the GI50 (TK-10)?
Answer: > 100 µM (inactive) and 81.8 µM (inactive)

Question: What about the GI50 (MDA-MB-231) of the same molecule?
Answer: 8.67 µM (inactive)

Question: What about the GI50 (HOP-92) of the same molecule?
Answer: > 100 µM (inactive)

Question: And the GI50 (HT-29)?
Answer: 4.53 µM (inactive)

Question: For COCCOC(=O)C1=C(O)c2ccccc2S(=O)(=O)N1C, which GI50 (NCI-H460) is on record?
Answer: > 100 µM (inactive)

Question: And the GI50 (HOP-62)?
Answer: > 100 µM (inactive)

Question: And the GI50 (T47D)?
Answer: > 100 µM (inactive)

Question: And the GI50 (K562)?
Answer: > 100 µM (inactive)

Question: And the GI50 (Hs-578T)?
Answer: > 100 µM (inactive)

Question: And the GI50 (OVCAR-8)?
Answer: > 100 µM (inactive)

Question: And the GI50 (A549)?
Answer: > 100 µM (inactive)

Question: And the GI50 (UO-31)?
Answer: > 100 µM (inactive)

Question: And the GI50 (TK-10)?
Answer: > 100 µM (inactive)

Question: What about the GI50 (KM12) of the same molecule?
Answer: > 100 µM (inactive)

Question: What about the GI50 (SNB-75) of the same molecule?
Answer: 12.5 µM (inactive)

Question: What about the GI50 (EKVX) of the same molecule?
Answer: > 100 µM (inactive)

Question: And the GI50 (PC-3)?
Answer: > 100 µM (inactive)

Question: And the GI50 (NCI-H226)?
Answer: > 100 µM (inactive)

Question: And the GI50 (MDA-MB-231)?
Answer: > 100 µM (inactive)

Question: And the GI50 (MDA-MB-435)?
Answer: > 100 µM (inactive)

Question: What about the GI50 (SW-620) of the same molecule?
Answer: > 100 µM (inactive)

Question: And the GI50 (A498)?
Answer: > 100 µM (inactive)

Question: And the GI50 (OVCAR-3)?
Answer: > 100 µM (inactive)

Question: What about the GI50 (HCC 2998) of the same molecule?
Answer: > 100 µM (inactive)

Question: And the GI50 (SR)?
Answer: > 100 µM (inactive)

Question: What about the GI50 (U-251) of the same molecule?
Answer: > 100 µM (inactive)

Question: What about the GI50 (CAKI-1) of the same molecule?
Answer: > 100 µM (inactive)

Question: What about the GI50 (SK-MEL-5) of the same molecule?
Answer: > 100 µM (inactive)

Question: What about the GI50 (SF-539) of the same molecule?
Answer: > 100 µM (inactive)

Question: And the GI50 (NCI/ADR-RES)?
Answer: > 100 µM (inactive)

Question: And the GI50 (HCT-116)?
Answer: > 100 µM (inactive)

Question: And the GI50 (SK-OV-3)?
Answer: > 100 µM (inactive)

Question: What about the GI50 (NCI-H522) of the same molecule?
Answer: > 100 µM (inactive)

Question: And the GI50 (SF-295)?
Answer: > 100 µM (inactive)

Question: What about the GI50 (SNB-19) of the same molecule?
Answer: > 100 µM (inactive)

Question: What about the GI50 (HOP-92) of the same molecule?
Answer: > 100 µM (inactive)

Question: And the GI50 (SN12C)?
Answer: > 100 µM (inactive)

Question: And the GI50 (SK-MEL-28)?
Answer: > 100 µM (inactive)

Question: What about the GI50 (IGROV-1) of the same molecule?
Answer: > 100 µM (inactive)

Question: And the GI50 (HL-60)?
Answer: > 100 µM (inactive)

Question: What about the GI50 (SF-268) of the same molecule?
Answer: > 100 µM (inactive)

Question: What about the GI50 (OVCAR-4) of the same molecule?
Answer: > 100 µM (inactive)

Question: And the GI50 (M14)?
Answer: > 100 µM (inactive)

Question: What about the GI50 (786-0) of the same molecule?
Answer: > 100 µM (inactive)

Question: And the GI50 (OVCAR-5)?
Answer: > 100 µM (inactive)

Question: What about the GI50 (HCT-15) of the same molecule?
Answer: > 100 µM

Question: And the GI50 (RXF 393)?
Answer: > 100 µM (inactive)

Question: And the GI50 (UACC-257)?
Answer: > 100 µM (inactive)

Question: And the GI50 (ACHN)?
Answer: > 100 µM (inactive)

Question: And the GI50 (COLO 205)?
Answer: > 100 µM (inactive)

Question: And the GI50 (LOX IMVI)?
Answer: > 100 µM (inactive)

Question: What about the GI50 (Malme-3M) of the same molecule?
Answer: > 100 µM (inactive)

Question: And the GI50 (HT-29)?
Answer: > 100 µM (inactive)

Question: And the GI50 (MOLT-4)?
Answer: > 100 µM (inactive)

Question: And the GI50 (SK-MEL-2)?
Answer: > 100 µM (inactive)

Question: What about the GI50 (RPMI-8226) of the same molecule?
Answer: > 100 µM (inactive)

Question: And the GI50 (UACC-62)?
Answer: > 100 µM (inactive)

Question: What about the GI50 (NCI-H23) of the same molecule?
Answer: > 100 µM (inactive)

Question: And the GI50 (MDA-N)?
Answer: > 100 µM (inactive)

Question: What about the GI50 (CCRF-CEM) of the same molecule?
Answer: > 100 µM (inactive)

Question: And the GI50 (DU-145)?
Answer: > 100 µM (inactive)
